Read-outs that look alike come from different tables or passages of the source.
Key:
[1] = system: S. aureus; experiment: Disc diffusion zone of inhibition (Example 2); type: cell-based; settings: Staphylococcus aureus
[2] = system: B. cereus; experiment: Disc diffusion zone of inhibition (Example 2); type: cell-based, Bacillus cereus; settings: Bacillus cereus; for zone of inhibition at 50 µg/disc: 50 μg/disc; for zone of inhibition at 200 µg/disc: 200 μg/disc
Procedure: (§1) The growth medium was prepared by addition of Müller-Hinton agar (38 g) to 1 L distilled water under vigorous stirring and boiled for 10 min until complete dissolution. After cooling to 25° C., the pH value of the medium was 7.3±0.1. The medium was sterilized in an autoclave at 121° C. for 15 min at 20 psi, cooled to 45-50° C. and dispended into sterile Petri dishes on a leveled, horizontal surface to give uniform depth. Stock solutions of the microorganisms were incubated at 37° C. for 24 h and the turbidity of these microbial colony were adjusted visually with sterile saline (0.85% w/v NaCl) to 0.5 McFarland standards (bioMerieux, SA (France) they are made from barium sulfate (BaSO4). Within 15 min after adjusting the turbidity of the suspensions, the Petri dishes were inoculated using sterile cotton buds. The prepared antibiotic assay discs were placed on the surface of the seeded Müller-Hinton agar using flame sterilized forceps.
(§2) Stock solutions of compounds of Formula I, Ia, Ib and Formula II, IIa, pharmaceutically acceptable salts thereof, and metal complexes thereof were made in DMSO and were micropipetted onto the discs for 25 to 200 μg/disc. The discs were dried at ambient temperature for 30-50 min before placement onto the seeded Petri dishes which were then incubated at 37° C. for 24 h. Averaged inhibition zone diameters measurements (mm) have an accuracy of ±0.5 mm; adjacent overlapping ZOI were determined using radii measurements. Antibiotic disc like (sulfamethoxazole 23.75 μg trimethoprim 1.25 μg)/disc, Gentamicin 10 μg/disc and DMSO were used as positive and negative standards (control).
(§3) Antimicrobial test was carried out to evaluate the efficacy of compounds of Formula I, Ia, Ib and Formula II, IIa, pharmaceutically acceptable salts thereof, and metal complexes thereof, as well as control tests with control compounds, against six major pathogenic bacteria namely Bacillus cereus, Pseudomonas aeruginosa, Klebsiella pneumonia, Proteus vulgaris, Staphylococcus aureus and Escherichia coli.

[3] = system: B. cereus; experiment: Disc diffusion zone of inhibition (Example 2); type: cell-based; settings: Bacillus cereus
[4] = system: S. aureus; experiment: Disc diffusion zone of inhibition (Example 2); type: cell-based, Staphylococcus aureus; settings: Staphylococcus aureus; for zone of inhibition at 50 µg/disc: 50 μg/disc
Procedure: as §1, §2, §3

[5] = system: P. vulgaris; experiment: Disc diffusion zone of inhibition (Example 2); type: cell-based, Proteus vulgaris; settings: Proteus vulgaris; for zone of inhibition at 200 µg/disc: 200 μg/disc
Procedure: as §1, §2, §3

[6] = system: P. aeruginosa; experiment: Disc diffusion zone of inhibition (Example 2); type: cell-based, Pseudomonas aeruginosa; settings: Pseudomonas aeruginosa; for zone of inhibition at 200 µg/disc: 200 μg/disc
Procedure: as §1, §2, §3

[7] = system: E. coli; experiment: Disc diffusion zone of inhibition (Example 2); type: cell-based, Escherichia coli; settings: Escherichia coli; for zone of inhibition at 200 µg/disc: 200 μg/disc
Procedure: as §1, §2, §3

[8] = system: K. pnemonia; experiment: Disc diffusion zone of inhibition (Example 2); type: cell-based, Klebsiella pneumonia; settings: Klebsiella pneumoniae; for zone of inhibition at 200 µg/disc: 200 μg/disc
Procedure: as §1, §2, §3

[9] = DPPH antioxidant activity test; settings: 50 μg compound in 3 mL methanol; DPPH 150 μL 1 mM; 30 min, 25 °C; absorbance 517 nm
Procedure: In addition to antibacterial properties, antioxidant activity was assessed in the compounds of Formula I and II and metal complexes thereof as antioxidant compounds play an important role in remediating the toxic effects of reactive oxygen species and other free radicals. The main characteristic of an antioxidant compound is its ability to trap free radicals. Highly reactive free radicals and oxygen species are present in biological systems from a wide variety of sources. Free radical damage is known to occur during bacterial and other microbial infections. Free radicals are produced by cells of the immune system during an active infection, and generally as a result of the inflammatory processes.
DPPH (2,2-diphenyl-1-picryl-hydrazyl, 150 μL, 1 mM solution in methanol) was added to 3 mL methanol in a cuvette (0.5 in diameter) and UV-vis absorption recorded at 517 nm for baseline reading. In a cuvette, DPPH (150 μL, 1 mM solution in methanol) was added to a solution containing compound in 3 mL methanol. The reaction was allowed to stir at 25±1° C. for 30 min under exclusion of light. Absorbance was recorded at 517 nm against reference cuvette filled with methanol.

[10] = system: Staphylococcus aureus (#25923); experiment: In vitro disc diffusion assay, ZOI (Example 3); type: cell-based; settings: 6 mm diameter discs; for Zone of Inhibition: Staphylococcus aureus; for ZOI: S. aureus
Procedure: (§4) Sterile assay discs (6 mm diameter) were obtained from VWR Whatman and antibiotic assay discs (6 mm diameter) containing getamicin (10 μg/disc) and the combination drug sulfamethoxazole 23.75 μg/disc and trimethoprim 1.25 μg/disc were obtained from Becton, Dickinson and Company (USA). Dimethyl sulfoxide (DMSO) for microbial experiments was BioReagent™ grade and was purchased from Sigma-Aldrich. The nutrient broth and Müller-Hinton agar was purchased from Becton, Dickinson and Company (USA). Bacillus cereus, Pseudomonas aeruginosa (#27853), Klebsiella pneumonia (#13883), Proteus vulgaris (#13315), Staphylococcus aureus (#25923) and Escherichia coli (#25922) strains were obtained from the American Type Culture Collection (ATCC). All materials in contact with antimicrobial matter was treated for 40 min at 121° C. and 20 psi in a biohazard autoclave bag prior to waste disposing or washing. McFarland turbity standards containing barium sulfate were obtained from bioMérieux.
as §1, with “the” for “these”, “colonies” for “colony”, “standards.” for “standards (bioMerieux, SA (France) they are made from barium sulfate (BaSO4).”
(§5) Stock solutions of compounds and the Cu complexed compounds were made in DMSO and were micropipetted onto the discs for 25 to 200 μg compound/disc. The discs were dried at ambient temperature for 30-50 min before placement onto the seeded Petri dishes which were then incubated at 37° C. for 24 h. Averaged inhibition zone measurements (mm) have an accuracy of ±0.5 mm; adjacent overlapping ZOI were determined using radii measurements.

[11] = system: Bacillus cereus; experiment: In vitro disc diffusion assay, ZOI (Example 3); type: cell-based; settings: 6 mm diameter discs; for Zone of Inhibition: Bacillus cereus; for ZOI: B. cereus
Procedure: as §4
as §1, with “the” for “these”, “colonies” for “colony”, “standards.” for “standards (bioMerieux, SA (France) they are made from barium sulfate (BaSO4).”
as §5

[12] = S. aureus, 200 μg/disc, read-out: Zone of inhibition

Compound: Nc1ccccc1SCc1ccccc1 [S-benzyl-ortho-aminothiophenol, S-benzyl ortho-aminothiophenol]
- zone of inhibition at 333 µg/disc ([1]; 333 μg/disc): 13 mm
- zone of inhibition at 666 µg/disc ([1]; 666 μg/disc): 15 mm
- zone of inhibition at 166 µg/disc ([2]; 166 μg/disc): 12 mm
- zone of inhibition at 333 µg/disc ([3]; 333 μg/disc): 15 mm
- zone of inhibition at 666 µg/disc ([3]; 666 μg/disc): 16 mm
- zone of inhibition at 166 µg/disc ([4]; S. aureus, 166 μg/disc): 11 mm

Compound: O=Cc1ccccn1 [2-pyridine carboxaldehyde]
- zone of inhibition at 50 µg/disc [2]: 20 mm
- zone of inhibition at 50 µg/disc ([5]; 50 μg/disc): 22 mm
- zone of inhibition at 50 µg/disc ([6]; 50 μg/disc): 24 mm
- zone of inhibition at 50 µg/disc ([7]; 50 μg/disc): 17 mm
- zone of inhibition at 50 µg/disc ([8]; 50 μg/disc): 23 mm
- % Antiox-Act [9]: 67.0%
- zone of inhibition at 50 µg/disc ([4]; S. aureus): 15 mm

Compound: 2-(methylthio)-N-(2-pyridylmethylene)-benzenamine copper (I) iodide [ECPP-143]
- Zone of Inhibition ([10]; 6.25 μg Cu/disc): 0 mm
- Zone of Inhibition ([10]; 12.5 μg Cu/disc): 0 mm
- Zone of Inhibition ([10]; 25 μg Cu/disc): 1 mm

Compound: 2-(methylthio)-N-(2-phenylmethylene)-benzenamine copper (II) bromide [ECPP-167]
- Zone of Inhibition ([11]; 6.25 μg Cu/disc): 0 mm
- Zone of Inhibition ([11]; 12.5 μg Cu/disc): 1 mm
- Zone of Inhibition ([11]; 25 μg Cu/disc): 2 mm
- Zone of Inhibition ([10]; 6.25 μg Cu/disc): 4 mm
- Zone of Inhibition ([10]; 12.5 μg Cu/disc): 5 mm
- Zone of Inhibition ([10]; 25 μg Cu/disc): 9 mm

Compound: C(=N\c1ccccc1SCc1ccccc1CSc1ccccc1/N=C/c1ccccn1)/c1ccccn1 [Compound L4]
- ZOI ([11]; 200 μg/disc): 0.5 mm
- ZOI ([10]; 200 μg/disc): 0.5 mm

Compound: Nc1ccccc1SCc1ccccc1CSc1ccccc1N [α,α′-bis((o-aminophenyl)thio)-ortho-xylene]
- zone of inhibition at 200 µg/disc [2]: 8 mm
- % Antiox-Act [9]: 60.8%
- zone of inhibition at 200 µg/disc [4]: 7 mm

Compound: CC(=O)[O-].CC(=O)[O-].Nc1ccccc1SCc1ccccc1CSc1ccccc1N.[Cu+2] [α,α′-bis((o-aminophenyl)thio)-ortho-xylene-copper (II) acetate]
- % Antiox-Act [9]: 63.5%

Compound: C(=N\c1ccccc1SCc1ccccc1)/c1ccccn1 [N-(2-pyridinylmethylidene) S-benzyl-ortho-aminothiophenol]
- zone of inhibition at 75 µg/disc ([2]; 75 μg/disc): 7 mm
- % Antiox-Act [9]: 65.8%
- zone of inhibition at 75 µg/disc ([4]; S. aureus, 75 μg/disc): 11 mm

Compound: Nc1ccccc1SCc1ccccc1CSc1ccccc1N.[Cl][Cu][Cl] [α,α′-bis((o-aminophenyl)thio)-ortho-xylene-copper (II) chloride]
- % Antiox-Act [9]: 56.1%

Compound: Nc1ccccc1SCc1ccccc1CSc1ccccc1N [Compound L2]
- ZOI ([11]; 200 μg/disc): 2 mm
- ZOI ([10]; 200 μg/disc): 1.5 mm

Compound: O=Cc1cccnc1 [3-pyridine carboxaldehyde]
- zone of inhibition at 200 µg/disc [2]: 27 mm
- zone of inhibition at 200 µg/disc [5]: 21 mm
- zone of inhibition at 200 µg/disc [6]: 23 mm
- zone of inhibition at 200 µg/disc [7]: 24 mm
- zone of inhibition at 200 µg/disc [8]: 22 mm
- zone of inhibition at 200 µg/disc [4, 12]: 32 mm

Compound: Nc1ccccc1SCc1ccc(CSc2ccccc2N)cc1 [Compound L1]
- ZOI ([11]; 50 μg/disc): 1.5 mm
- ZOI ([11]; 100 μg/disc): 5 mm
- ZOI ([11]; 200 μg/disc): 6.3 mm
- ZOI ([10]; 50 μg/disc): 2.5 mm
- ZOI ([10]; 100 μg/disc): 3.5 mm
- ZOI ([10]; 200 μg/disc): 5.5 mm

Compound: 2-(methylthio)-N-(2-thienylmethylene)-benzenamine copper (II) bromide [ECPP-129]
- Zone of Inhibition ([11]; 6.25 μg Cu/disc): 0 mm
- Zone of Inhibition ([11]; 12.5 μg Cu/disc): 0.5 mm
- Zone of Inhibition ([11]; 25 μg Cu/disc): 9 mm
- Zone of Inhibition ([10]; 6.25 μg Cu/disc): 5 mm
- Zone of Inhibition ([10]; 12.5 μg Cu/disc): 7 mm
- Zone of Inhibition ([10]; 25 μg Cu/disc): 10 mm

Compound: 2-(methylthio)-N-(2-pyridylmethylene)-benzenamine copper (I) bromide [ECPP-141]
- Zone of Inhibition ([11]; 6.25 μg Cu/disc): 0 mm
- Zone of Inhibition ([11]; 12.5 μg Cu/disc): 0 mm
- Zone of Inhibition ([11]; 25 μg Cu/disc): 2 mm
- Zone of Inhibition ([10]; 6.25 μg Cu/disc): 0.5 mm
- Zone of Inhibition ([10]; 12.5 μg Cu/disc): 2 mm
- Zone of Inhibition ([10]; 25 μg Cu/disc): 5 mm

Compound: Nc1ccccc1SCc1ccc(CSc2ccccc2N)cc1 [α,α′-bis((o-aminophenyl)thio)-para-xylene]
- zone of inhibition at 50 µg/disc [2]: 9 mm
- zone of inhibition at 100 µg/disc ([2]; 100 μg/disc): 16 mm
- zone of inhibition at 200 µg/disc [2]: 19 mm
- % Antiox-Act [9]: 65.4%
- zone of inhibition at 50 µg/disc ([4]; S. aureus): 11 mm
- zone of inhibition at 100 µg/disc ([4]; S. aureus, 100 μg/disc): 13 mm
- zone of inhibition at 200 µg/disc [4, 12]: 17 mm

Compound: C(=N\c1ccccc1SCc1ccccc1)/c1ccccn1 [Compound L3]
- ZOI ([11]; 50 μg/disc): 0 mm
- ZOI ([11]; 75 μg/disc): 0.5 mm
- ZOI ([10]; 50 μg/disc): 0 mm
- ZOI ([10]; 75 μg/disc): 2.5 mm

Compound: O=Cc1ccncc1 [4-pyridine carboxaldehyde]
- zone of inhibition at 200 µg/disc [2]: 29 mm
- zone of inhibition at 200 µg/disc [5]: 25 mm
- zone of inhibition at 200 µg/disc [6]: 27 mm
- zone of inhibition at 200 µg/disc [7]: 25 mm
- zone of inhibition at 200 µg/disc [8]: 26 mm
- zone of inhibition at 200 µg/disc [4, 12]: 30 mm

Compound: 2-(methylthio)-N-(2-pyridylmethylene)-benzenamine copper (II) bromide [ECPP-145]
- Zone of Inhibition ([11]; 6.25 μg Cu/disc): 0 mm
- Zone of Inhibition ([11]; 12.5 μg Cu/disc): 0 mm
- Zone of Inhibition ([11]; 25 μg Cu/disc): 0.5 mm
- Zone of Inhibition ([10]; 6.25 μg Cu/disc): 0 mm
- Zone of Inhibition ([10]; 12.5 μg Cu/disc): 1 mm
- Zone of Inhibition ([10]; 25 μg Cu/disc): 4 mm

Compound: C(=N\c1ccccc1SCc1ccccc1CSc1ccccc1/N=C/c1ccccn1)/c1ccccn1 [Bis [N,N′-(2-pyridinyl methylidene)]α,α′-bis((o-aminophenyl)thio)-ortho-xylene]
- zone of inhibition at 200 µg/disc [2]: 7 mm
- % Antiox-Act [9]: 61.3%
- zone of inhibition at 200 µg/disc [4, 12]: 7 mm
